USRE47689E1, “Compounds for treating spinal muscular atrophy” (PTC Therapeutics, Inc., priority 2011, dated 2019)

How the values were obtained:
[1] = tested on: Smn protein; assay: Smn protein assay in cultured cells (SMN HTRF); format: cell-based, human; details: 48 hours; for maximum fold (Fold) increase of Smn protein: SMA patient fibroblast cells, 7-point concentration data, fold increase relative to vehicle control (SMN HTRF); for EC1.5x (concentration giving 1.5-fold Smn protein increase): SMA Type 1 patient fibroblast cells (GM03813), 7-point concentration curve, SMN HTRF, concentration producing 1.5 times Smn protein vs DMSO vehicle control, read-out: EC1.5x for Smn protein expression
Outline: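 Smn in SMA fibroblast lysates, measured by anti-SMN HTRF after 48 h compound exposure; EC1.5x from fold change over vehicle.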

[2] = tested on: SMN2 minigene (full length SMN2 minigene mRNA containing SMN2 exon 7); assay: SMN2 minigene mRNA splicing RT-qPCR assay in cultured cells; format: cell-based, human; details: Homo sapiens, HEK293-H; HEK293H cells stably transfected with SMN2-A minigene; 24 hours; 7-point concentration curve; 1.5-fold relative to vehicle-treated cells; read-out: EC1.5x for production of full length SMN2 mRNA
Outline: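 Lysates → one-step RT-qPCR, minigene-specific primers (0.4 μM final) + GAPDH multiplex, 40 cycles. FL/GAPDH vs DMSO; EC1.5x, star-binned.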

Row | melting point | SMILES | maximum fold (Fold) increase of Smn protein [1] | EC (1.5-fold) [2] | EC1.5x (concentration giving 1.5-fold Smn protein increase) [1]
1 | 217 to 221 °C | CCN1CCC[C@H]2CN(c3ccc4cc(-c5cn6cc(C)nc(C)c6n5)c(=O)oc4c3)C[C@H]21 [Compound 803, 3-(6,8-dimethylimidazo[1,2-a]pyrazin-2-yl)-7-[(4aS,7aS)-1-ethyloctahydro-6H-pyrrolo[3,4-b]pyridin-6-yl]-2H-chromen-2-one] | *** (fold increase between >1.35 and ≤1.5) | < 0.1 µM | –
2 | 238 to 240 °C | COc1cc(OC)cc(-c2cc3ccc(N4CCCNCC4)cc3oc2=O)c1 [Compound 387, 7-(1,4-diazepan-1-yl)-3-(3,5-dimethoxyphenyl)-2H-chromen-2-one] | * (maximum fold increase of ≤1.2) | 3 to 30 µM | –
3 | 257 to 264 °C | C[C@@H]1CN(c2ccc3cc(-c4cn5ccc(C(F)(F)F)cc5n4)c(=O)oc3c2)C[C@H](C)N1 [Compound 116, 7-[(3R,5S)-3,5-dimethylpiperazin-1-yl]-3-[7-(trifluoromethyl)imidazo[1,2-a]pyridin-2-yl]-2H-chromen-2-one] | ** (fold increase between >1.2 and ≤1.35) | 0.3 to 1 µM | –
4 | 290 to 300 °C | Cc1cn2cc(-c3cc4ccc(N[C@@H]5CCNC5)cc4oc3=O)nc2c(C)n1 [Compound 564, 3-(6,8-dimethylimidazo[1,2-a]pyrazin-2-yl)-7-[(3R)-pyrrolidin-3-ylamino]-2H-chromen-2-one] | ***** (fold increase >1.65) | < 0.1 µM | < 300 nM
5 | 185 to 188 °C | Cc1cn2cc(-c3cc4ccc(CCCN(C)C)cc4oc3=O)cc(F)c2n1 [Compound 909, 7-[3-(dimethylamino)propyl]-3-(8-fluoro-2-methylimidazo[1,2-a]pyridin-6-yl)-2H-chromen-2-one] | ***** (fold increase >1.65) | < 0.1 µM | < 300 nM
6 | 225 to 230 °C | Cc1ccc2nc(-c3cc4ccc(N5CC[C@H](NC(=O)OC(C)(C)C)C5)cc4oc3=O)cn2c1 [Compound 177, tert-butyl {(3S)-1-[3-(6-methylimidazo[1,2-a]pyridin-2-yl)-2-oxo-2H-chromen-7-yl]pyrrolidin-3-yl}carbamate] | * (maximum fold increase of ≤1.2) | 3 to 30 µM | –
7 | 165 to 168 °C | CCN(CC)C1CCN(c2ccc3cc(-c4cc5c(C)nc(C)cn5c4)c(=O)oc3c2)C1 (stereo not shown) [Compound 735, 7-[3-(diethylamino)pyrrolidin-1-yl]-3-(1,3-dimethylpyrrolo[1,2-a]pyrazin-7-yl)-2H-chromen-2-one] | **** (fold increase between >1.5 and ≤1.65) | < 0.1 µM | 300 to 1000 nM
8 | 192 to 195 °C | Cc1cn2cc(-c3cc4ccc(N5CCN(CCF)[C@@H](C)C5)cc4oc3=O)nc2c(C)n1 [Compound 894, 3-(6,8-dimethylimidazo[1,2-a]pyrazin-2-yl)-7-[(3S)-4-(2-fluoroethyl)-3-methylpiperazin-1-yl]-2H-chromen-2-one] | ***** (fold increase >1.65) | < 0.1 µM | 300 to 1000 nM
9 | 219 to 229 °C | Cc1cc(C)c2nc(-c3cc4ccc(N5CCNCC5)cc4oc3=O)cn2c1 [Compound 260, 3-(6,8-dimethylimidazo[1,2-a]pyridin-2-yl)-7-(piperazin-1-yl)-2H-chromen-2-one] | * (maximum fold increase of ≤1.2) | 0.3 to 1 µM | –
10 | 252 to 262 °C | Cc1ccn2cc(-c3cc4ccc(N5CCN(C)CC5)cc4oc3=O)nc2c1 [Compound 134, 3-(7-methylimidazo[1,2-a]pyridin-2-yl)-7-(4-methylpiperazin-1-yl)-2H-chromen-2-one] | *** (fold increase between >1.35 and ≤1.5) | 0.3 to 1 µM | 1000 to 3000 nM
11 | 173 to 175 °C | Cc1cn2cc(-c3cc4ccc(N5C[C@@H]6CCN(C)[C@@H]6C5)cc4oc3=O)cc2c(C)n1 [Compound 729, 3-(1,3-dimethylpyrrolo[1,2-a]pyrazin-7-yl)-7-[(3aS,6aS)-1-methylhexahydropyrrolo[3,4-b]pyrrol-5(1H)-yl]-2H-chromen-2-one] | *** (fold increase between >1.35 and ≤1.5) | < 0.1 µM | 1000 to 3000 nM
12 | 288 to 294 °C | C[C@@H]1CN(c2cc(F)c3cc(-c4nc5ccccc5[nH]4)c(=O)oc3c2)C[C@H](C)N1 [Compound 371, 3-(1H-benzimidazol-2-yl)-7-[(3R,5S)-3,5-dimethylpiperazin-1-yl]-5-fluoro-2H-chromen-2-one] | * (maximum fold increase of ≤1.2) | 0.3 to 1 µM | –
13 | > 300 °C | Cl.O=c1oc2cc(N3CCCNCC3)ccc2cc1-c1cn2cccnc2n1 [Compound 186, 7-(1,4-diazepan-1-yl)-3-(imidazo[1,2-a]pyrimidin-2-yl)-2H-chromen-2-one hydrochloride] | *** (fold increase between >1.35 and ≤1.5) | 0.1 to 0.3 µM | 1000 to 3000 nM
14 | 266 to 269 °C | CCN1CCN(c2ccc3cc(-c4cn5cc(C)ccc5n4)c(=O)oc3c2)CC1 [Compound 95, 7-(4-ethylpiperazin-1-yl)-3-(6-methylimidazo[1,2-a]pyridin-2-yl)-2H-chromen-2-one] | **** (fold increase between >1.5 and ≤1.65) | 1 to 3 µM | < 300 nM
15 | 282 to 292 °C | Cc1cn2cc(-c3cc4ccc(N5C[C@H]6CNC[C@H]6C5)cc4oc3=O)nc2cn1 [Compound 718, 7-[(3aR,6aS)-hexahydropyrrolo[3,4-c]pyrrol-2(1H)-yl]-3-(6-methylimidazo[1,2-a]pyrazin-2-yl)-2H-chromen-2-one] | **** (fold increase between >1.5 and ≤1.65) | < 0.1 µM | < 300 nM
16 | 190 to 196 °C | CCN(C)CCOc1ccc2cc(-c3cn4cc(C)nc(C)c4n3)c(=O)oc2c1 [Compound 937, 3-(6,8-dimethylimidazo[1,2-a]pyrazin-2-yl)-7-{2-[ethyl(methyl)amino]ethoxy}-2H-chromen-2-one] | ***** (fold increase >1.65) | < 0.1 µM | < 300 nM
17 | 267 °C (dec.) | Cc1ccc2nc(-c3cc4ccc(N5CCN(C)CC5)cc4oc3=O)cn2c1 [Compound 81, 3-(6-methylimidazo[1,2-a]pyridin-2-yl)-7-(4-methylpiperazin-1-yl)-2H-chromen-2-one] | *** (fold increase between >1.35 and ≤1.5) | 0.3 to 1 µM | 3000 to 10000 nM
18 | 164 to 167 °C | C[C@@H]1CN(c2ccc3cc(-c4cc5ccccn5c4)c(=O)oc3c2)C[C@H](C)N1 [Compound 553, 7-[(3R,5S)-3,5-dimethylpiperazin-1-yl]-3-(indolizin-2-yl)-2H-chromen-2-one] | * (maximum fold increase of ≤1.2) | 0.3 to 1 µM | –
19 | 166 to 169 °C | Cc1ccc2nc(-c3cc4ccc(CN(C)CCO)cc4oc3=O)cn2c1 [Cpd 148, 7-{[(2-hydroxyethyl)(methyl)amino]methyl}-3-(6-methylimidazo[1,2-a]pyridin-2-yl)-2H-chromen-2-one] | ***** (fold increase >1.65) | 3 to 30 µM | 1000 to 3000 nM
20 | 177 to 180 °C | Cc1cn2cc(-c3cc4ccc(CCCNC5CCOC5)cc4oc3=O)nc2c(C)n1 (stereo not shown) [Compound 939, 3-(6,8-dimethylimidazo[1,2-a]pyrazin-2-yl)-7-[3-(tetrahydrofuran-3-ylamino)propyl]-2H-chromen-2-one] | ***** (fold increase >1.65) | < 0.1 µM | < 300 nM
21 | 213 to 215 °C | Cc1nccn2cc(-c3cc4ccc(N5CCNCC5)cc4oc3=O)nc12 [Compound 571, 3-(8-methylimidazo[1,2-a]pyrazin-2-yl)-7-(piperazin-1-yl)-2H-chromen-2-one] | ** (fold increase between >1.2 and ≤1.35) | 0.3 to 1 µM | –
22 | 240 to 242 °C | O=c1oc2cc(N3CCNCC3)ccc2cc1-c1cn2cc(Cl)sc2n1 [Compound 494, 3-(2-chloroimidazo[2,1-b][1,3]thiazol-6-yl)-7-(piperazin-1-yl)-2H-chromen-2-one] | * (maximum fold increase of ≤1.2) | 0.1 to 0.3 µM | –
23 | 101 to 103 °C | Cc1cccc(-c2cc3ccc(N4CCN[C@@H](C)C4)cc3oc2=O)c1 [Compound 512, 3-(3-methylphenyl)-7-[(3S)-3-methylpiperazin-1-yl]-2H-chromen-2-one] | * (maximum fold increase of ≤1.2) | 1 to 3 µM | –
